Consider 28 molecules from patent publication US9290490B2 (Merck Sharp & Dohme Corp., priority 2011, dated 2016).

In the assay the target is recombinant human GST-Syk (Homo sapiens (Human), UniProt P43405). Nature of the assay: Homogeneous Time-Resolved Fluorescence (HTRF) Assay for the Recombinant Human Syk Enzyme. The class given is biochemical. The note with it: recombinant human GST-Syk 5 pM, ATP 25 μM. The procedure: Homogeneous Time-Resolved Fluorescence (HTRF) Assay for the Recombinant Human Syk Enzyme:
A recombinant GST-hSyk fusion protein was used to measure potency of compounds to inhibit human Syk activity. The recombinant human GST-Syk (Carna Biosciences #08-176) (5 pM final concentration) was incubated with various concentrations of the inhibitor diluted in DMSO (0.1% final concentration) for 10 minutes at room temperature in 15 mM Tris-HCl (pH 7.5), 0.01% tween 20, 2 mM DTT in 384 well plate format. To initiate the reaction the biotinylated substrate peptide (250 nM final concentration) that contains the phosphorylation site for Syk was added with magnesium (5 mM final concentration) and ATP (25 μM final concentration). Final volume of the reaction was 10 μL. Phosphorylation of the peptide was allowed to proceed for 45′ at room temperature. To quench the reaction and detect the phosphorylated product, 2 nM of a Europium-anti-phosphotyrosine antibody (Perkin Elmer #AD0161) and 70 nM SA-APC (Perkin-Elmer #CR130-100) were added together in 15 mM Tris pH 7.5, 40 mM EDTA, 0.01% Tween 20. Final volume of the quenching solution was 10 μL. The resulting HTRF signal was measured after 30 minutes on a EnVision (Perkin-Elmer) reader using a time-resolved fluorescence protocol. […] IC50 values are also provided for the following representative compounds: […]

[1] abbreviates: 10-dose titration, read-out: rhSyk.
[2] abbreviates: read-out: rhSyk Activity (IC50).

Each structure is given as a SMILES string. Where a name gives a salt, the structure may show the parent alone. Read-outs that look alike come from different tables or passages of the source.

In the case of `Cc1cc(Nc2ncc(F)c(C)n2)cc(-c2cnc(C(O)(CO)C3CCC(C(=O)O)CC3)s2)c1` (stereo not drawn) [Example 2-109], the IC50 was 15 nM under setting [1] and no more than 100 nM under setting [2]. Take `Cc1cc(Nc2nccc(C(F)(F)F)n2)cc(-c2cnc(C(C)(O)[C@H]3CC[C@H](c4nn[nH]n4)CC3)s2)c1` (single isomer, unassigned) [Example 6 (faster eluting enantiomer), 2-{[3-(2-{1-hydroxy-1-[trans-4-(2H-tetrazol-5-yl)cyclohexyl]ethyl}-1,3-thiazol-5-yl)-5-methylphenyl]amino}-4-(trifluoromethyl)pyrimidin-1-ium trifluoroacetate]: the IC50 under setting [2] is no more than 100 nM.

On to `C[C@@](O)(c1ncc(-c2cc(F)cc(Nc3nccc(C(F)(F)F)n3)c2)s1)[C@H]1CC[C@H](C(=O)O)CC1` (single isomer, unassigned) [Example 17, trans-4-{(1R or 1S)-1-[5-(3-fluoro-5-{[4-(trifluoromethyl)pyrimidin-2-yl]amino}phenyl)-1,3-thiazol-2-yl]-1-hydroxyethyl}cyclohexanecarboxylic acid], for which the IC50 was 1 nM under setting [1] and no more than 100 nM under setting [2]. For `CCOC(=O)C1CCC(Cc2ncc(-c3cc(C)cc(Nc4nccc(C)n4)c3)s2)CC1` (stereo not drawn) [Example 13, step 2, ethyl 4-[(5-{3-methyl-5-[(4-methylpyrimidin-2-yl)amino]phenyl}-1,3-thiazol-2-yl)methyl]cyclohexanecarboxylate], in that order: 301 nM and 100 to 1000 nM. `Cc1cc(Nc2nccc(C(F)(F)F)n2)cc(-c2cnc(C(C)(O)C3CCC(C)(C(=O)O)CC3)s2)c1` (stereo not drawn) [Example 3-6]: the IC50 under setting [2] is no more than 100 nM. Take `CCCCOC(=O)[C@H]1CC[C@H](C(C)(O)c2ncc(-c3cc(C)cc(Nc4nccc(C(F)(F)F)n4)c3)s2)CC1` (relative stereo) [Example 1, Step 1, butyl trans-4-{1-hydroxy-1-[5-(3-methyl-5-{[4-(trifluoromethyl)pyrimidin-2-yl]amino}-phenyl)-1,3-thiazol-2-yl]ethyl}cyclohexanecarboxylate]: the IC50 under setting [2] is no more than 100 nM. On the same count and under the same terms, with `Cc1cc(Nc2nccc(C(F)(F)F)n2)cc(-c2cnc(C(O)(CF)[C@H]3CC[C@H](C(=O)O)CC3)s2)c1` (stereo partly drawn) [Example 9, trans-4-{2-fluoro-1-hydroxy-1-[5-(3-methyl-5-{[4-(trifluoromethyl)pyrimidin-2-yl]amino}phenyl)-1,3-thiazol-2-yl]ethyl}cyclohexanecarboxylic acid] the figure was no more than 100 nM; with `Cc1ccnc(Nc2cc(C)c(Br)c(-c3cnc([C@](C)(O)[C@H]4CC[C@H](C(=O)O)CC4)s3)c2)n1` (single isomer, unassigned) [Example 8, trans-4-[(1R or 1S)-1-(5-{2-bromo-3-methyl-5-[(4-methylpyrimidin-2-yl)amino]phenyl}-1,3-thiazol-2-yl)-1-hydroxyethyl]cyclohexanecarboxylic acid], no more than 100 nM. Take `Cc1cc(Nc2nccc(C)n2)cc(-c2cnc(C(O)(C3CCC(C(=O)O)CC3)C(F)(F)F)s2)c1` (stereo not drawn) [Example 2-101]: the IC50 is 2 nM under setting [1] and no more than 100 nM under setting [2]. As to `Cc1cc(Nc2nccc(C(F)(F)F)n2)cc(-c2cnc(C(O)C3CCC4(CC3)OCCO4)s2)c1` (stereo not drawn) [Example 22, 1,4-dioxaspiro[4.5]dec-8-yl[5-(3-methyl-5-{[4-(trifluoromethyl)pyrimidin-2-yl]amino}phenyl)-1,3-thiazol-2-yl]methanol], the IC50 under setting [1] worked out at 197 nM and the IC50 under setting [2] lay within 100 to 1000 nM. For `COC(C)(c1ncc(-c2cc(C)cc(Nc3nccc(C(F)(F)F)n3)c2)s1)[C@H]1CC[C@H](C(=O)O)CC1` (stereo partly drawn) [Example 2-110], in that order: 1 nM and no more than 100 nM. For `CCCCC(=O)OC1CCC(C(C)(O)c2ncc(-c3cc(C)cc(Nc4nccc(C(F)(F)F)n4)c3)s2)CC1` (stereo not drawn) [Example 2-3], in that order: 1260 nM and 1000 to 10000 nM. For `CCC(=O)O[C@@H]1CCC(C(C)(O)c2ncc(-c3cc(C)cc(Nc4nccc(C)n4)c3)s2)C[C@H]1C` (stereo partly drawn) [Example 2-16] the same measures were 93 nM and no more than 100 nM. In the case of `Cc1cc(Nc2nccc(C(F)(F)F)n2)cc(-c2cnc(C(O)[C@H]3CC[C@H](C(N)=O)CC3)s2)c1` [Example 7 (trans isomer), trans-4-{hydroxy[5-(3-methyl-5-{[4-(trifluoromethyl)pyrimidin-2-yl]amino}phenyl)-1,3-thiazol-2-yl]methyl}cyclohexanecarboxamide], the IC50 is 35 nM under setting [1] and no more than 100 nM under setting [2]. For the molecule `Cc1cc(Nc2nccc(C(F)(F)F)n2)cc(-c2cnc(C(C)(O)[C@H]3CC[C@H](c4nn[nH]n4)CC3)s2)c1` (single isomer, unassigned) [Example 6 (slower eluting enantiomer), 2-{[3-(2-{1-hydroxy-1-[trans-4-(2H-tetrazol-5-yl)cyclohexyl]ethyl}-1,3-thiazol-5-yl)-5-methylphenyl]amino}-4-(trifluoromethyl)pyrimidin-1-ium trifluoroacetate], under setting [2], the IC50 is no more than 100 nM. On the same count and under the same terms, with `Cc1cc(Nc2nccc(C)n2)cc(-c2cnc(CC3(O)CCC(C(=O)OC(C)(C)C)CC3)s2)c1` (single isomer, unassigned) [Example 5, Step 3 (cis isomer), tert-butyl cis-4-hydroxy-4-[(5-{3-methyl-5-[(4-methylpyrimidin-2-yl)amino]phenyl}-1,3-thiazol-2-yl)methyl]cyclohexanecarboxylate] the figure was 100 to 1000 nM. Same read-out and setting: with `Cc1cc(Nc2nccc(C(F)(F)F)n2)cc(-c2cnc(C(C)(O)C3CCC(C)(C(=O)O)CC3)s2)c1` (single isomer, unassigned) [Example 3 (isomer 3), 4-{1-hydroxy-1-[5-(3-methyl-5-{[4-(trifluoromethyl)pyrimidin-2-yl]amino}phenyl)-1,3-thiazol-2-yl]ethyl}-1-methylcyclohexanecarboxylic acid] the figure was no more than 100 nM. Same read-out and setting: with `Cc1cc(Nc2nccc(C(F)(F)F)n2)cc(-c2cnc([C@@](O)(C3CC3)[C@H]3CC[C@H](C(=O)O)CC3)s2)c1` (single isomer, unassigned) [Example 2 (from Intermediate 28 slower eluting enantiomer), trans-4-{(R or S)-cyclopropyl(hydroxy)[5-(3-methyl-5-{[4-(trifluoromethyl)pyrimidin-2-yl]amino}phenyl)-1,3-thiazol-2-yl]methyl}cyclohexanecarboxylic] the figure was no more than 100 nM; with `Cc1cc(Nc2nccc(C(F)(F)F)n2)cc(-c2cnc(C(C)(O)C3CCC(C)(C(=O)O)CC3)s2)c1` (stereo not drawn) [Example 3-7], no more than 100 nM. For the molecule `CCCCOC(=O)[C@H]1CC[C@H](C(C)(O)c2ncc(-c3cc(C)cc(Nc4nccc(C(F)F)n4)c3)s2)CC1` (single isomer, unassigned), under setting [2], the IC50 was in the range of 100 to 1000 nM. On to `Cc1cc(Nc2nccc(C(F)(F)F)n2)cc(-c2cnc(C(C)(O)C3CCC(C)(C(=O)O)CC3)s2)c1` (stereo not drawn) [Example 3-5], for which the IC50 under setting [2] is no more than 100 nM. For `Cc1cc(Nc2nccc(C)n2)cc(-c2cnc(C(C)(O)C3CCC(C(=O)O)CC3)s2)c1` (stereo not drawn) [Example 2-53], the IC50 was 13 nM under setting [1] and no more than 100 nM under setting [2]. As to `Cc1cc(Nc2nccc(C(F)(F)F)n2)cc(-c2cnc(C(C)(O)C3CCC(C)(O)CC3)s2)c1` (stereo not drawn) [Example 23, 4-{1-hydroxy-1-[5-(3-methyl-5-{[4-(trifluoromethyl)pyrimidin-2-yl]amino}phenyl)-1,3-thiazol-2-yl]ethyl}-1-methylcyclohexanol], under setting [2], the IC50 is no more than 100 nM. Same read-out and setting: with `Cc1cc(Nc2nccc(C)n2)cc(-c2cnc(C[C@]3(O)CC[C@H](C(=O)O)CC3)s2)c1` [5 (trans isomer), trans-4-hydroxy-4-[(5-{3-methyl-5-[(4-methylpyrimidin-2-yl)amino]phenyl}-1,3-thiazol-2-yl)methyl]cyclohexanecarboxylic acid] the figure was no more than 100 nM. Consider `Cc1cc(Nc2nccc(C(F)(F)F)n2)cc(-c2cnc(C(N)[C@H]3CC[C@H](C(=O)O)CC3)s2)c1` (stereo partly drawn) [Example 2-112], for which the IC50 by setting is: under setting [1], 3 nM; under setting [2], no more than 100 nM. In the case of `Cc1cc(Nc2nccc(C)n2)cc(-c2cnc(CC3(O)CCC(C(=O)OC(C)(C)C)CC3)s2)c1` (single isomer, unassigned) [Example 5, Step 3 (trans isomer), tert-butyl trans-4-hydroxy-4-[(5-{3-methyl-5-[(4-methylpyrimidin-2-yl)amino]phenyl}-1,3-thiazol-2-yl)methyl]cyclohexanecarboxylate], the IC50 reads like this: under setting [1], 318 nM; under setting [2], 100 to 1000 nM.

Turning to `CC(O)(c1ncc(-c2cc(Nc3nccc(C(F)(F)F)n3)cc(C3CC3)c2)s1)[C@H]1CC[C@H](C(=O)O)CC1` (single isomer, unassigned) [Example 16, trans-4-{(1R or 1S)-[5-(3-cyclopropyl-5-{[4-(trifluoromethyl)pyrimidin-2-yl]amino}phenyl)-1,3-thiazol-2-yl]-1-hydroxyethyl}cyclohexanecarboxylic acid], the IC50 under setting [1] stood at 1 nM and the IC50 under setting [2] was no more than 100 nM. In the case of `CCCCC(=O)OC1CCC(C(C)(O)c2ncc(-c3cc(C)cc(Nc4ncc(F)c(OC)n4)c3)s2)CC1` (stereo not drawn) [Example 2-73], the IC50 is 1460 nM under setting [1] and 1000 to 10000 nM under setting [2].
